Assay results reported in publication PMC9025941, “Influence of the Type of Amino Acid on the Permeability and Properties of Ibuprofenates of Isopropyl Amino Acid Esters” (International Journal of Molecular Sciences, 2022).
“And” between values parts separate entries of the source, which are not always exact repeats. Equal entries are not always repeated. Marks after values point to notes of the source that are not given here.

assay: n-octanol-water partition coefficient, shake flask method; details: shake flask, 25 °C

SMILES	Log P (n-octanol-water partition coefficient)
CC(C)Cc1ccc(C(C)C(=O)O)cc1.CC[C@H](C)[C@H](N)C(=O)OC(C)C [[L-IleOiPr][IBU], L-isoleucine isopropyl ester ibuprofenate]	1.652 ± 0.008
CC(C)C[C@H](N)C(=O)OC(C)C.CC(C)Cc1ccc(C(C)C(=O)O)cc1 [[L-LeuOiPr][IBU], L-leucine isopropyl ester ibuprofenate]	1.391 ± 0.001

assay: not given; details: 24 h penetration, n = 3

SMILES	Accumulation in the skin [µg IBU g^−1]
CC(C)Cc1ccc(C(C)C(=O)O)cc1.CC[C@H](C)[C@H](N)C(=O)OC(C)C [[L-IleOiPr][IBU], L-isoleucine isopropyl ester ibuprofenate]	646.293 ± 123.070

assay: Solubility in organic solvents by modified Vogel's method; details: 25 °C

SMILES	Solubility in DMSO	Solubility in chloroform	Solubility in dichloromethane	Solubility in diethyl ether	Solubility in ethanol	Solubility in ethyl acetate	Solubility in n-hexane	Solubility in toluene
CC(C)Cc1ccc(C(C)C(=O)O)cc1.CC[C@H](C)[C@H](N)C(=O)OC(C)C [[L-IleOiPr][IBU], L-isoleucine isopropyl ester ibuprofenate]	+ (soluble >100 mg cm^−3)	+ (soluble >100 mg cm^−3)	+ (soluble >100 mg cm^−3)	+/− (partially soluble 33–100 mg cm^−3)	+ (soluble >100 mg cm^−3)	+ (soluble >100 mg cm^−3)	− (insoluble <33 mg cm^−3)	+ (soluble >100 mg cm^−3)
CC(C)C[C@H](N)C(=O)OC(C)C.CC(C)Cc1ccc(C(C)C(=O)O)cc1 [[L-LeuOiPr][IBU], L-leucine isopropyl ester ibuprofenate]	+ (soluble >100 mg cm^−3)	+ (soluble >100 mg cm^−3)	+ (soluble >100 mg cm^−3)	+/− (partially soluble 33–100 mg cm^−3)	+ (soluble >100 mg cm^−3)	+ (soluble >100 mg cm^−3)	− (insoluble <33 mg cm^−3)	+ (soluble >100 mg cm^−3)

assay: Thermal stability (TG/DTG): decomposition onset and maximum mass-loss rate temperature; details: not given
Procedure: In Figure 5, the thermal stability of ibuprofen and amino acid isopropyl ester ibuprofenates was determined and compared. All TG, DTG, and c-DTA curves are in the Supplementary Materials (Figures S87–S100). The decomposition onset temperature (Tonset) and the temperature of the maximum rate of mass loss (Tmax) were determined.

SMILES	Tonset, the onset temperature of the thermal degradation [°C]
CC(C)Cc1ccc(C(C)C(=O)O)cc1.CC[C@H](C)[C@H](N)C(=O)OC(C)C [[L-IleOiPr][IBU], L-isoleucine isopropyl ester ibuprofenate]	105.2
CC(C)C[C@H](N)C(=O)OC(C)C.CC(C)Cc1ccc(C(C)C(=O)O)cc1 [[L-LeuOiPr][IBU], L-leucine isopropyl ester ibuprofenate]	109.5

assay: In vitro skin permeation, Franz diffusion cells; details: 24 h, n = 3

SMILES	Q%24 h, the percentage of the applied dose permeated after 24 h [%]
CC(C)Cc1ccc(C(C)C(=O)O)cc1.CC[C@H](C)[C@H](N)C(=O)OC(C)C [[L-IleOiPr][IBU], L-isoleucine isopropyl ester ibuprofenate]	2.318 ± 0.118
CC(C)C[C@H](N)C(=O)OC(C)C.CC(C)Cc1ccc(C(C)C(=O)O)cc1 [[L-LeuOiPr][IBU], L-leucine isopropyl ester ibuprofenate]	11.077 ± 0.236

same assay, conditions: 24 h, saturated solution in PBS pH 7.4, mass of compound, n = 3

SMILES	Cumulative Permeation Mass
CC(C)Cc1ccc(C(C)C(=O)O)cc1.CC[C@H](C)[C@H](N)C(=O)OC(C)C [[L-IleOiPr][IBU], L-isoleucine isopropyl ester ibuprofenate]	173.888 ± 8.815 ^b µg·cm^−2
CC(C)C[C@H](N)C(=O)OC(C)C.CC(C)Cc1ccc(C(C)C(=O)O)cc1 [[L-LeuOiPr][IBU], L-leucine isopropyl ester ibuprofenate]	424.683 ± 9.060 ^b µg·cm^−2

same assay, conditions: 24 h, saturated solution in PBS pH 7.4, mass of ibuprofen, n = 3

SMILES	Cumulative Permeation Mass
CC(C)Cc1ccc(C(C)C(=O)O)cc1.CC[C@H](C)[C@H](N)C(=O)OC(C)C [[L-IleOiPr][IBU], L-isoleucine isopropyl ester ibuprofenate]	94.512 ± 4.791 ^b µg IBU·cm^−2
CC(C)C[C@H](N)C(=O)OC(C)C.CC(C)Cc1ccc(C(C)C(=O)O)cc1 [[L-LeuOiPr][IBU], L-leucine isopropyl ester ibuprofenate]	230.824 ± 4.924 ^b µg IBU·cm^−2

same assay, conditions: n = 3

SMILES	LT, lag time [h]
CC(C)Cc1ccc(C(C)C(=O)O)cc1.CC[C@H](C)[C@H](N)C(=O)OC(C)C [[L-IleOiPr][IBU], L-isoleucine isopropyl ester ibuprofenate]	1.617 ± 0.057
CC(C)C[C@H](N)C(=O)OC(C)C.CC(C)Cc1ccc(C(C)C(=O)O)cc1 [[L-LeuOiPr][IBU], L-leucine isopropyl ester ibuprofenate]	1.742 ± 0.061

same assay, conditions: relative to IBU

SMILES	EF, enhancement factor
CC(C)Cc1ccc(C(C)C(=O)O)cc1.CC[C@H](C)[C@H](N)C(=O)OC(C)C [[L-IleOiPr][IBU], L-isoleucine isopropyl ester ibuprofenate]	0.31
CC(C)C[C@H](N)C(=O)OC(C)C.CC(C)Cc1ccc(C(C)C(=O)O)cc1 [[L-LeuOiPr][IBU], L-leucine isopropyl ester ibuprofenate]	1.50

same assay, conditions: saturated solution in PBS pH 7.4, n = 3

SMILES	JSS, steady-state flux
CC(C)Cc1ccc(C(C)C(=O)O)cc1.CC[C@H](C)[C@H](N)C(=O)OC(C)C [[L-IleOiPr][IBU], L-isoleucine isopropyl ester ibuprofenate]	9.545 µg IBU cm^−2 h^−1 and 9.545 ± 0.239 µg IBU cm^−2 h^−1
CC(C)C[C@H](N)C(=O)OC(C)C.CC(C)Cc1ccc(C(C)C(=O)O)cc1 [[L-LeuOiPr][IBU], L-leucine isopropyl ester ibuprofenate]	38.502 ± 1.553 µg IBU cm^−2 h^−1

assay: Solubility (saturation concentration) in deionised water and PBS pH 7.4, HPLC; details: PBS pH 7.4, 32 °C; g of active compound (IBU)

SMILES	Solubility in Phosphate Buffer pH = 7.4 [g IBU∙dm^−3]
CC(C)Cc1ccc(C(C)C(=O)O)cc1.CC[C@H](C)[C@H](N)C(=O)OC(C)C [[L-IleOiPr][IBU], L-isoleucine isopropyl ester ibuprofenate]	2.562 ± 0.010
CC(C)C[C@H](N)C(=O)OC(C)C.CC(C)Cc1ccc(C(C)C(=O)O)cc1 [[L-LeuOiPr][IBU], L-leucine isopropyl ester ibuprofenate]	2.084 ± 0.002

same assay, conditions: PBS pH 7.4, 32 °C; g of compound

SMILES	Solubility in Phosphate Buffer pH = 7.4 [g∙dm^−3]
CC(C)Cc1ccc(C(C)C(=O)O)cc1.CC[C@H](C)[C@H](N)C(=O)OC(C)C [[L-IleOiPr][IBU], L-isoleucine isopropyl ester ibuprofenate]	4.713 ± 0.018
CC(C)C[C@H](N)C(=O)OC(C)C.CC(C)Cc1ccc(C(C)C(=O)O)cc1 [[L-LeuOiPr][IBU], L-leucine isopropyl ester ibuprofenate]	3.834 ± 0.003

same assay, conditions: water, 25 °C; g of active compound (IBU)

SMILES	Solubility in Water [g IBU∙dm^−3]
CC(C)Cc1ccc(C(C)C(=O)O)cc1.CC[C@H](C)[C@H](N)C(=O)OC(C)C [[L-IleOiPr][IBU], L-isoleucine isopropyl ester ibuprofenate]	1.483 ± 0.098
CC(C)C[C@H](N)C(=O)OC(C)C.CC(C)Cc1ccc(C(C)C(=O)O)cc1 [[L-LeuOiPr][IBU], L-leucine isopropyl ester ibuprofenate]	0.682 ± 0.038

same assay, conditions: water, 25 °C; g of compound

SMILES	Solubility in Water [g∙dm^−3]
CC(C)Cc1ccc(C(C)C(=O)O)cc1.CC[C@H](C)[C@H](N)C(=O)OC(C)C [[L-IleOiPr][IBU], L-isoleucine isopropyl ester ibuprofenate]	2.729 ± 0.180
CC(C)C[C@H](N)C(=O)OC(C)C.CC(C)Cc1ccc(C(C)C(=O)O)cc1 [[L-LeuOiPr][IBU], L-leucine isopropyl ester ibuprofenate]	1.255 ± 0.070
